Assay results reported in patent US12139520B2 (priority 2020, dated 2024).
Numbered stars: 1 amine (or outer) side, 2 acyl side, 3 side chain; on linkers, the order of the positions; unused ones are H or OH. Bridge positions count the residues as written; N and C are the ends. Square brackets hold non-standard residues; d marks the D form. Peptide text beside a SMILES is read from it. * marks the point of attachment. C20 diacid = O=C(O)CCCCCCCCCCCCCCCCCCC(=O)*; γGlu = O=C(O)[C@H](CCC(=O)[*:2])N[*:1]; Hyp = O=C(O)[C@@H]1C[C@@H](O)CN1

target: T1, hAMY3 receptor (Homo sapiens, UniProt O60896+P30988); test: cAMP assay for in vitro receptor activation, hAMY3-R; assay type: cell-based; settings: cAMP assay, hAMY3 receptor; read-out: hAMY3R EC50
T1 sequence (P30988 25-474): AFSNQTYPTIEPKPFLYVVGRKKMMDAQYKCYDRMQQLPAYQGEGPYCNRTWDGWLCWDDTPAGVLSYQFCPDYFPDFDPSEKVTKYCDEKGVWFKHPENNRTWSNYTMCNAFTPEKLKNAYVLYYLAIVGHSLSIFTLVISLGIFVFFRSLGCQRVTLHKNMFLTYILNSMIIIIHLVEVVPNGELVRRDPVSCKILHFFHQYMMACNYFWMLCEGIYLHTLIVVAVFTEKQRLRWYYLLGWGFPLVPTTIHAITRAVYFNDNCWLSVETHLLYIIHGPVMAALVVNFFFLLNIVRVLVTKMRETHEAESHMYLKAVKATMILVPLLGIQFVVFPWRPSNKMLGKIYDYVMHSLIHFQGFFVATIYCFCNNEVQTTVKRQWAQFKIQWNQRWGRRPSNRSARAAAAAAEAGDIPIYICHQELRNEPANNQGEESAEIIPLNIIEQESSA
T1 sequence (O60896 24-148 partner): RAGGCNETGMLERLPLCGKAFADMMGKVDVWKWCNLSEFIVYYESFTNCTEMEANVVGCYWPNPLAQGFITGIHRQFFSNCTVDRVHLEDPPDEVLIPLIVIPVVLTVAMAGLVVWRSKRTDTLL
In short: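 Monoclonal cell line stably overexpressing hAMY3 receptor, plated in DPBS with 0.05% casein and 0.5 mM IBMX, was stimulated with graded compound doses for 30 min at room temperature. cAMP accumulation was read by time-resolved FRET one hour after adding detection reagents.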

Compound | EC50
CC[C@H](C)[C@H](NC(=O)[C@H](CCC(N)=O)NC(=O)[C@H](Cc1ccc(O)cc1)NC(=O)[C@H](C)NC(=O)[C@H](CC(C)C)NC(=O)[C@H](CCCNC(=N)N)NC(=O)[C@H](CCC(N)=O)NC(=O)[C@@H](NC(=O)[C@@H](NC(=O)[C@@H]1CSSC[C@H](NC(=O)[C@H](CCCCN)NC(=O)CC[C@H](NC(=O)CCCCCCCCCCCCCCCCCCC(=O)O)C(=O)O)C(=O)N[C@@H](CC(N)=O)C(=O)N[C@@H]([C@@H](C)O)C(=O)N[C@@H](C)C(=O)N[C@@H]([C@@H](C)O)C(=O)N1)[C@@H](C)O)C(C)C)C(=O)N[C@@H](Cc1ccc(O)cc1)C(=O)N[C@@H](CCC(N)=O)C(=O)N[C@@H](Cc1ccccc1)C(=O)N[C@H](C(=O)N[C@@H](CC(=O)O)C(=O)N[C@@H](CCCCN)C(=O)N[C@@H](CC(=O)O)C(=O)N[C@@H](CCCCN)C(=O)N[C@@H](CC(=O)O)C(=O)N[C@@H](CC(N)=O)C(=O)N[C@H](C(=O)N[C@@H](C)C(=O)N1CCC[C@H]1C(=O)N1CCC[C@H]1C(=O)N[C@H](C(=O)N[C@@H](CC(N)=O)C(=O)N[C@H](C(=O)NCC(=O)N[C@@H](CO)C(=O)N[C@@H](CC(N)=O)C(=O)NCC(=O)N1C[C@H](O)C[C@H]1C(N)=O)C(C)C)[C@@H](C)O)C(C)C)[C@@H](C)O [compound 47] ({C20 diacid-γGlu}-KCNTATCTVQRLAYQIYQFTDKDKDNVAPPTNVGSNG[Hyp]-NH2; disulfide 2-7) | 0.011 nM
CC[C@H](C)[C@H](NC(=O)[C@H](CCC(N)=O)NC(=O)[C@H](Cc1c[nH]cn1)NC(=O)[C@H](C)NC(=O)[C@H](CC(C)C)NC(=O)[C@H](CCCNC(=N)N)NC(=O)[C@H](CCC(N)=O)NC(=O)[C@@H](NC(=O)[C@@H](NC(=O)[C@@H]1CSSC[C@H](NC(=O)CNC(=O)CC[C@H](NC(=O)CCCCCCCCCCCCCCCCCCC(=O)O)C(=O)O)C(=O)N[C@@H](CCCNC(=N)N)C(=O)N[C@@H](Cc2ccccc2)C(=O)N[C@@H](C)C(=O)N[C@@H]([C@@H](C)O)C(=O)N1)[C@@H](C)O)C(C)C)C(=O)N[C@@H](Cc1ccc(O)cc1)C(=O)N[C@@H](CCC(N)=O)C(=O)N[C@@H](Cc1ccccc1)C(=O)N[C@H](C(=O)N[C@@H](CC(=O)O)C(=O)N[C@@H](CCCCN)C(=O)N[C@@H](CC(=O)O)C(=O)N[C@@H](CCCCN)C(=O)N[C@@H](CC(=O)O)C(=O)N[C@@H](CC(N)=O)C(=O)N[C@H](C(=O)N[C@@H](C)C(=O)N1CCC[C@H]1C(=O)N[C@@H](CCCNC(=N)N)C(=O)N[C@H](C(=O)N[C@@H](CCCCN)C(=O)N[C@H](C(=O)NCC(=O)N1CCC[C@H]1C(=O)N[C@@H](CCC(N)=O)C(=O)NCC(=O)N[C@@H](Cc1ccc(O)cc1)C(N)=O)C(C)C)[C@@H](C)O)C(C)C)[C@@H](C)O [compound 380] ({C20 diacid-γGlu}-GCRFATCTVQRLAHQIYQFTDKDKDNVAPRTKVGPQGY-NH2; disulfide 2-7) | 0.031 nM
CC(C)C[C@H](NC(=O)[C@H](CCCNC(=N)N)NC(=O)[C@H](CCC(N)=O)NC(=O)[C@@H](NC(=O)[C@@H](NC(=O)[C@@H]1CSSC[C@H](NC(=O)CN)C(=O)N[C@@H](CCCNC(=N)N)C(=O)N[C@@H](Cc2ccccc2)C(=O)NCC(=O)N[C@@H]([C@@H](C)O)C(=O)N1)[C@@H](C)O)C(C)C)C(=O)N[C@@H](C)C(=O)N[C@@H](Cc1c[nH]cn1)C(=O)N[C@@H](Cc1ccccc1)C(=O)N[C@@H](CC(C)C)C(=O)N[C@@H](Cc1ccc(O)cc1)C(=O)N[C@@H](CCC(N)=O)C(=O)N[C@@H](Cc1ccccc1)C(=O)N[C@H](C(=O)N[C@@H](CC(=O)O)C(=O)N[C@@H](CCCCN)C(=O)N[C@@H](CC(=O)O)C(=O)N[C@@H](CCCCN)C(=O)N[C@@H](CC(=O)O)C(=O)N[C@@H](CC(N)=O)C(=O)N[C@H](C(=O)N[C@@H](C)C(=O)N1CCC[C@H]1C(=O)N[C@@H](CCCNC(=N)N)C(=O)N[C@H](C(=O)N[C@@H](CCCCN)C(=O)N[C@H](C(=O)NCC(=O)N1CCC[C@H]1C(=O)N[C@@H](CCC(N)=O)C(=O)NCC(=O)N[C@@H](Cc1ccc(O)cc1)C(N)=O)C(C)C)[C@@H](C)O)C(C)C)[C@@H](C)O [compound 369] (H-GCRFGTCTVQRLAHFLYQFTDKDKDNVAPRTKVGPQGY-NH2; disulfide 2-7; N-terminus assumed) | 0.017 nM
CC[C@H](C)[C@H](NC(=O)[C@H](CCC(N)=O)NC(=O)[C@H](Cc1c[nH]cn1)NC(=O)[C@H](C)NC(=O)[C@H](CC(C)C)NC(=O)[C@H](CCCNC(=N)N)NC(=O)[C@H](CCC(=O)O)NC(=O)[C@@H](NC(=O)[C@@H](NC(=O)[C@@H]1CSSC[C@H](NC(=O)[C@H](CCCCN)NC(=O)CC[C@H](NC(=O)CCCCCCCCCCCCCCCCCCC(=O)O)C(=O)O)C(=O)N[C@@H](CC(N)=O)C(=O)N[C@@H]([C@@H](C)O)C(=O)N[C@@H](C)C(=O)N[C@@H]([C@@H](C)O)C(=O)N1)[C@@H](C)O)C(C)C)C(=O)N[C@@H](Cc1ccc(O)cc1)C(=O)N[C@@H](CCC(N)=O)C(=O)N[C@@H](Cc1ccccc1)C(=O)N[C@H](C(=O)N[C@@H](CC(=O)O)C(=O)N[C@@H](CCCCN)C(=O)N[C@@H](CC(=O)O)C(=O)N[C@@H](CCCCN)C(=O)N[C@@H](CC(=O)O)C(=O)N[C@@H](CC(N)=O)C(=O)N[C@H](C(=O)N[C@@H](C)C(=O)N1CCC[C@H]1C(=O)N1CCC[C@H]1C(=O)N[C@H](C(=O)N[C@@H](CC(N)=O)C(=O)N[C@H](C(=O)NCC(=O)N[C@@H](CO)C(=O)N[C@@H](CC(N)=O)C(=O)NCC(=O)N1C[C@H](O)C[C@H]1C(N)=O)C(C)C)[C@@H](C)O)C(C)C)[C@@H](C)O [compound 55] ({C20 diacid-γGlu}-KCNTATCTVERLAHQIYQFTDKDKDNVAPPTNVGSNG[Hyp]-NH2; disulfide 2-7) | 0.012 nM
CC[C@H](C)[C@H](NC(=O)[C@H](CCCCN)NC(=O)[C@@H](NC(=O)[C@H](CCCNC(=N)N)NC(=O)[C@@H]1CCCN1C(=O)[C@H](C)NC(=O)[C@@H](NC(=O)[C@H](CC(N)=O)NC(=O)[C@H](CC(=O)O)NC(=O)[C@H](CCCCN)NC(=O)[C@H](CC(=O)O)NC(=O)[C@H](CCCCN)NC(=O)[C@H](CC(=O)O)NC(=O)[C@@H](NC(=O)[C@H](Cc1ccccc1)NC(=O)[C@H](CCC(N)=O)NC(=O)[C@H](Cc1ccc(O)cc1)NC(=O)[C@H](CC(C)C)NC(=O)[C@H](Cc1ccccc1)NC(=O)[C@H](Cc1c[nH]cn1)NC(=O)[C@H](C)NC(=O)[C@H](CC(C)C)NC(=O)[C@H](CCCNC(=N)N)NC(=O)[C@H](CCC(N)=O)NC(=O)[C@@H](NC(=O)[C@@H](NC(=O)[C@@H]1CSSC[C@H](NC(=O)CN)C(=O)N[C@@H](CCCNC(=N)N)C(=O)N[C@@H](Cc2ccccc2)C(=O)NCC(=O)N[C@@H]([C@@H](C)O)C(=O)N1)[C@@H](C)O)C(C)C)[C@@H](C)O)C(C)C)[C@@H](C)O)C(=O)NCC(=O)N1CCC[C@H]1C(=O)N[C@@H](CCC(N)=O)C(=O)NCC(=O)N[C@@H](Cc1ccc(O)cc1)C(N)=O [compound 365] (H-GCRFGTCTVQRLAHFLYQFTDKDKDNVAPRTKIGPQGY-NH2; disulfide 2-7) | 0.012 nM
CC[C@H](C)[C@H](NC(=O)[C@H](CCC(N)=O)NC(=O)[C@H](Cc1c[nH]cn1)NC(=O)[C@H](C)NC(=O)[C@H](CC(C)C)NC(=O)[C@H](CCCNC(=N)N)NC(=O)[C@H](CCC(N)=O)NC(=O)[C@@H](NC(=O)[C@@H](NC(=O)[C@@H]1CSSC[C@H](NC(=O)[C@@H](N)CCCCN)C(=O)N[C@@H](CC(N)=O)C(=O)N[C@@H](Cc2ccccc2)C(=O)N[C@@H](C)C(=O)N[C@@H]([C@@H](C)O)C(=O)N1)[C@@H](C)O)C(C)C)C(=O)N[C@@H](Cc1ccc(O)cc1)C(=O)N[C@@H](CCC(N)=O)C(=O)N[C@@H](Cc1ccccc1)C(=O)N[C@H](C(=O)N[C@@H](CC(=O)O)C(=O)N[C@@H](CCCCN)C(=O)N[C@@H](CC(=O)O)C(=O)N[C@@H](CCCCN)C(=O)N[C@@H](CC(=O)O)C(=O)N[C@@H](CC(N)=O)C(=O)N[C@H](C(=O)N[C@@H](C)C(=O)N1CCC[C@H]1C(=O)N[C@@H](CCCNC(=N)N)C(=O)N[C@H](C(=O)N[C@@H](CCCCN)C(=O)N[C@H](C(=O)NCC(=O)N[C@@H](CO)C(=O)N[C@@H](CC(N)=O)C(=O)NCC(=O)N[C@@H](Cc1ccc(O)cc1)C(N)=O)C(C)C)[C@@H](C)O)C(C)C)[C@@H](C)O [compound 361] (H-KCNFATCTVQRLAHQIYQFTDKDKDNVAPRTKVGSNGY-NH2; disulfide 2-7; N-terminus assumed) | 0.006 nM
CC(C)C[C@H](NC(=O)[C@H](CCCNC(=N)N)NC(=O)[C@H](CCC(N)=O)NC(=O)[C@@H](NC(=O)[C@@H](NC(=O)[C@@H]1CSSC[C@H](NC(=O)CN)C(=O)N[C@@H](CCCNC(=N)N)C(=O)N[C@@H](Cc2ccccc2)C(=O)NCC(=O)N[C@@H]([C@@H](C)O)C(=O)N1)[C@@H](C)O)C(C)C)C(=O)N[C@@H](C)C(=O)N[C@@H](Cc1c[nH]cn1)C(=O)N[C@@H](Cc1ccccc1)C(=O)N[C@@H](CC(C)C)C(=O)N[C@@H](Cc1ccc(O)cc1)C(=O)N[C@@H](CCC(N)=O)C(=O)N[C@@H](Cc1ccccc1)C(=O)N[C@H](C(=O)N[C@@H](CC(=O)O)C(=O)N[C@@H](CCCCN)C(=O)N[C@@H](CC(=O)O)C(=O)N[C@@H](CCCCN)C(=O)N[C@@H](CC(=O)O)C(=O)N[C@@H](CC(N)=O)C(=O)N[C@H](C(=O)N[C@@H](C)C(=O)N1CCC[C@H]1C(=O)N[C@@H](CCCNC(=N)N)C(=O)N[C@H](C(=O)N[C@@H](CC(N)=O)C(=O)N[C@H](C(=O)NCC(=O)N[C@@H](CO)C(=O)N[C@@H](CC(N)=O)C(=O)N[C@H](C(=O)N[C@@H](Cc1ccc(O)cc1)C(N)=O)[C@@H](C)O)C(C)C)[C@@H](C)O)C(C)C)[C@@H](C)O [compound 56] (H-GCRFGTCTVQRLAHFLYQFTDKDKDNVAPRTNVGSNTY-NH2; disulfide 2-7; N-terminus assumed) | 0.012 nM
